Experiment [1] concerns the target T1, Serine/threonine-protein kinase BRSK1 (Homo sapiens) (UniProt Q8TDC3).
T1 sequence (whole entry): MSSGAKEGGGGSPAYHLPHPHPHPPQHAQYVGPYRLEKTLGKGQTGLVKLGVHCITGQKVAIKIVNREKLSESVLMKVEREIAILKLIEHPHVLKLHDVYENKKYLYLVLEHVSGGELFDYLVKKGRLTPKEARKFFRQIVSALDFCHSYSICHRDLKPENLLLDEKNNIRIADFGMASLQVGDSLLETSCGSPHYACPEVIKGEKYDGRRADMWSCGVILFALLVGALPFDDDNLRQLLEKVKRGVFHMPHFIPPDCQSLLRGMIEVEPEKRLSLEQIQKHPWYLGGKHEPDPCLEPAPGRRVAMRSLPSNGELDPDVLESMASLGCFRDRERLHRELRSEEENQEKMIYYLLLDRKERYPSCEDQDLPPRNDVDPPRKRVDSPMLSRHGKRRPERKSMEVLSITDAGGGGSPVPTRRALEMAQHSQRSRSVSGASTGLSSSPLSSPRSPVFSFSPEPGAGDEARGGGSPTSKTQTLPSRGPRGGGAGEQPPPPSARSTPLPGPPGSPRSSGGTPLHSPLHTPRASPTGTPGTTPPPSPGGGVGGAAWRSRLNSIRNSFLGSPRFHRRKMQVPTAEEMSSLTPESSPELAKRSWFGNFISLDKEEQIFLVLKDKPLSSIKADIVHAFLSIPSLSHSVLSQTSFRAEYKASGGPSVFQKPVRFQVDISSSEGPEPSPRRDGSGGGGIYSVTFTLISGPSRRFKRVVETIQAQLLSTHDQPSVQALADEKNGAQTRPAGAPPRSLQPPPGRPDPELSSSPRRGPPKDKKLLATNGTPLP
Put plainly: Inhibition of human BRSK1 using KKKVSRSGLYRSPSMPENLNRPR as substrate at 1 uM in presence of 32P-ATP by Hotspot assay relative to control; values are per cent of control.

Experiment [2] has as its target T2, MAP/microtubule affinity-regulating kinase 4 (Homo sapiens) (UniProt Q96L34).
T2 sequence (whole entry): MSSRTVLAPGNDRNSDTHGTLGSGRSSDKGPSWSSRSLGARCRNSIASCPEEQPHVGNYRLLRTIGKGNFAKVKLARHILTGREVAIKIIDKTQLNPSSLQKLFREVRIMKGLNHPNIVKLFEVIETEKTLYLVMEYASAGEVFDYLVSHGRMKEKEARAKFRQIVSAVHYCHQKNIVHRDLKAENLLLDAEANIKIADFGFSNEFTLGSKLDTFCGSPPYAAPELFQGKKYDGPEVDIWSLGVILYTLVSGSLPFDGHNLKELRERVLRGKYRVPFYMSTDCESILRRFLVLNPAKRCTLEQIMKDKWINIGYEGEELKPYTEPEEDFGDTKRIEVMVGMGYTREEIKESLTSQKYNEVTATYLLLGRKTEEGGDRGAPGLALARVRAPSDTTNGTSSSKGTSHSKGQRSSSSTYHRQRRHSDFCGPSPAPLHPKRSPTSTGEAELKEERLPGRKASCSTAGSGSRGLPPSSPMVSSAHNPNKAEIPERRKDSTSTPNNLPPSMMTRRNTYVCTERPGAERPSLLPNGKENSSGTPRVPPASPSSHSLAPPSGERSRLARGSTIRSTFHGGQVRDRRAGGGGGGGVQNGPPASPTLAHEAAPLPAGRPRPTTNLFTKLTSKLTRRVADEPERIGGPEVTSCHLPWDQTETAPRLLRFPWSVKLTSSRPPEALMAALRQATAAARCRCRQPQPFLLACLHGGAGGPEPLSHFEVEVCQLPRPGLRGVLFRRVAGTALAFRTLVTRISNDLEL
Put plainly: Inhibition of human MARK4 using KKKVSRSGLYRSPSMPENLNRPR as substrate at 1 uM in presence of 32P-ATP by Hotspot assay relative to control; values are per cent of control.

For experiment [3], the target named is T3, Serine/threonine-protein kinase D1 (Homo sapiens) (UniProt Q15139).
T3 sequence (whole entry): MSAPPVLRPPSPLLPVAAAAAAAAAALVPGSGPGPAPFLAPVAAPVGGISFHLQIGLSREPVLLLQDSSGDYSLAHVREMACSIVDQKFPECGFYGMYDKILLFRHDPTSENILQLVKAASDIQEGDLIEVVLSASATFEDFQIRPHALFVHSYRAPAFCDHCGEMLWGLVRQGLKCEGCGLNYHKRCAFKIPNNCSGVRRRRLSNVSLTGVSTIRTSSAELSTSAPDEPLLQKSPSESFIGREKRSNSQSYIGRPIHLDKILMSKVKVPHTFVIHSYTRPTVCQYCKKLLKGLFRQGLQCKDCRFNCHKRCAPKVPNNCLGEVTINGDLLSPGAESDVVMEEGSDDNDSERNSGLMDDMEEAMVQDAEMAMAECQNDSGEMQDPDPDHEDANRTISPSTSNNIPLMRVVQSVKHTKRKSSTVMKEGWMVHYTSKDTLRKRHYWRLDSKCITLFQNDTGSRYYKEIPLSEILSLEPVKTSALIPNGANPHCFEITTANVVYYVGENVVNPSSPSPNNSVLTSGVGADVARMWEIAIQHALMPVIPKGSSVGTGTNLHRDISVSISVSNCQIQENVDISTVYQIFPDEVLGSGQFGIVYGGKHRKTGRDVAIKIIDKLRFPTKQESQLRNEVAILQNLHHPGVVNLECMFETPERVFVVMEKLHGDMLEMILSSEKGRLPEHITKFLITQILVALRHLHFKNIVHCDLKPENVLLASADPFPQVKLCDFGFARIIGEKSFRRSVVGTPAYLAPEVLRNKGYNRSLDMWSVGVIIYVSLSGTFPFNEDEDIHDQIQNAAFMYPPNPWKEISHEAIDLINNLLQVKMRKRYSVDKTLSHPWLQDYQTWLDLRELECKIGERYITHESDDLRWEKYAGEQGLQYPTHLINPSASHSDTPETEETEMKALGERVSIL
Put plainly: Residual activity of human PKCmu/PRKD1 using KKLNRTLSVA as substrate at 1 uM in presence of 32P-ATP by Hotspot assay relative to control.

Structures are written as SMILES.

As for `CNC(=O)c1ccc2c(c1)ncn2-c1ccc(CC(=O)OC(C)(C)C)cc1`, the residual activity – broadly, the signal under treatment as a percentage of the control signal – stood at 96.6% in experiment [1], 93.1% in experiment [2] and 99.5% in experiment [3].
Taken in the same sequence, the figures for `Cc1cc(-c2cnc(N)c3c(-c4ccc5scnc5c4)csc23)n(C)n1` were 101%, 86% and 51.6%.
Taken in the same sequence, the figures for `CC(C)S(=O)(=O)c1ccc2nccc(Nc3ccc4scnc4c3)c2c1` were 101%, 99.9% and 98.9%.

Source of the values: ChEMBL document CHEMBL5649166, “RIP3 induces apoptosis independent of pronecrotic kinase activity” (Mol Cell, 2014).
